How the values were obtained:
[1] = biological target: T1, MenA1:MenT1 (MenT1 in the presence of MenA1) (Mycobacterium tuberculosis, UniProt L7N686)
T1 construct: gene Rv0078A

[2] = biological target: T1, MenA1:MenT1 (MenT1 in the presence of MenA1); remark: listed apart in the source

## Nc1ncnc2c1ncn2[C@@H]1O[C@H](COP(=O)(O)OP(=O)(O)O)[C@@H](O)[C@H]1O [ADP]
[1]
  phosphorylation assay of MenT1: Co-incubation of MenT1, MenA1 and MgCl2 with ADP, but not AMP or AMP-PNP, supported phosphorylation

## Nc1ncnc2c1ncn2[C@@H]1O[C@H](COP(=O)(O)OP(=O)(O)OP(=O)(O)O)[C@@H](O)[C@H]1O [ATP]
[2]
  ΔTm: no significant differences between mean ΔTm values were observed when incubated with any

## Nc1ccn([C@@H]2O[C@H](COP(=O)(O)OP(=O)(O)OP(=O)(O)O)[C@@H](O)[C@H]2O)c(=O)n1 [CTP]
[2]
  ΔTm: no significant differences between mean ΔTm values were observed when incubated with any

## Nc1nc2c(ncn2[C@@H]2O[C@H](COP(=O)(O)OP(=O)(O)OP(=O)(O)O)[C@@H](O)[C@H]2O)c(=O)[nH]1 [GTP]
[2]
  ΔTm: no significant differences between mean ΔTm values were observed when incubated with any

## O=c1ccn([C@@H]2O[C@H](COP(=O)(O)OP(=O)(O)OP(=O)(O)O)[C@@H](O)[C@H]2O)c(=O)[nH]1 [UTP]
[2]
  ΔTm: no significant differences between mean ΔTm values were observed when incubated with any
